Measured values taken from patent publication US10745420B2, “Tetrahydropyrido[4,3-d]pyrimidine inhibitors of ATR kinase” (Board of Regents, The University of Texas System, priority 2017, dated 2020).
pIC50: −log10 of the molar value. Like-named read-outs stand apart in the source and are kept apart here.

Key:
ATR/ATRIP complex = ATR/ATRIP complex (Homo sapiens (Human), UniProt Q13535); experiment: ATR/ATRIP enzymatic assay (Caliper-based); assay type: biochemical; conditions: FAM-labeled RAD17 peptide, ATP; read-out: ATR/ATRIP Enzyme IC50
Chain of ATR/ATRIP complex (Q13535 whole entry): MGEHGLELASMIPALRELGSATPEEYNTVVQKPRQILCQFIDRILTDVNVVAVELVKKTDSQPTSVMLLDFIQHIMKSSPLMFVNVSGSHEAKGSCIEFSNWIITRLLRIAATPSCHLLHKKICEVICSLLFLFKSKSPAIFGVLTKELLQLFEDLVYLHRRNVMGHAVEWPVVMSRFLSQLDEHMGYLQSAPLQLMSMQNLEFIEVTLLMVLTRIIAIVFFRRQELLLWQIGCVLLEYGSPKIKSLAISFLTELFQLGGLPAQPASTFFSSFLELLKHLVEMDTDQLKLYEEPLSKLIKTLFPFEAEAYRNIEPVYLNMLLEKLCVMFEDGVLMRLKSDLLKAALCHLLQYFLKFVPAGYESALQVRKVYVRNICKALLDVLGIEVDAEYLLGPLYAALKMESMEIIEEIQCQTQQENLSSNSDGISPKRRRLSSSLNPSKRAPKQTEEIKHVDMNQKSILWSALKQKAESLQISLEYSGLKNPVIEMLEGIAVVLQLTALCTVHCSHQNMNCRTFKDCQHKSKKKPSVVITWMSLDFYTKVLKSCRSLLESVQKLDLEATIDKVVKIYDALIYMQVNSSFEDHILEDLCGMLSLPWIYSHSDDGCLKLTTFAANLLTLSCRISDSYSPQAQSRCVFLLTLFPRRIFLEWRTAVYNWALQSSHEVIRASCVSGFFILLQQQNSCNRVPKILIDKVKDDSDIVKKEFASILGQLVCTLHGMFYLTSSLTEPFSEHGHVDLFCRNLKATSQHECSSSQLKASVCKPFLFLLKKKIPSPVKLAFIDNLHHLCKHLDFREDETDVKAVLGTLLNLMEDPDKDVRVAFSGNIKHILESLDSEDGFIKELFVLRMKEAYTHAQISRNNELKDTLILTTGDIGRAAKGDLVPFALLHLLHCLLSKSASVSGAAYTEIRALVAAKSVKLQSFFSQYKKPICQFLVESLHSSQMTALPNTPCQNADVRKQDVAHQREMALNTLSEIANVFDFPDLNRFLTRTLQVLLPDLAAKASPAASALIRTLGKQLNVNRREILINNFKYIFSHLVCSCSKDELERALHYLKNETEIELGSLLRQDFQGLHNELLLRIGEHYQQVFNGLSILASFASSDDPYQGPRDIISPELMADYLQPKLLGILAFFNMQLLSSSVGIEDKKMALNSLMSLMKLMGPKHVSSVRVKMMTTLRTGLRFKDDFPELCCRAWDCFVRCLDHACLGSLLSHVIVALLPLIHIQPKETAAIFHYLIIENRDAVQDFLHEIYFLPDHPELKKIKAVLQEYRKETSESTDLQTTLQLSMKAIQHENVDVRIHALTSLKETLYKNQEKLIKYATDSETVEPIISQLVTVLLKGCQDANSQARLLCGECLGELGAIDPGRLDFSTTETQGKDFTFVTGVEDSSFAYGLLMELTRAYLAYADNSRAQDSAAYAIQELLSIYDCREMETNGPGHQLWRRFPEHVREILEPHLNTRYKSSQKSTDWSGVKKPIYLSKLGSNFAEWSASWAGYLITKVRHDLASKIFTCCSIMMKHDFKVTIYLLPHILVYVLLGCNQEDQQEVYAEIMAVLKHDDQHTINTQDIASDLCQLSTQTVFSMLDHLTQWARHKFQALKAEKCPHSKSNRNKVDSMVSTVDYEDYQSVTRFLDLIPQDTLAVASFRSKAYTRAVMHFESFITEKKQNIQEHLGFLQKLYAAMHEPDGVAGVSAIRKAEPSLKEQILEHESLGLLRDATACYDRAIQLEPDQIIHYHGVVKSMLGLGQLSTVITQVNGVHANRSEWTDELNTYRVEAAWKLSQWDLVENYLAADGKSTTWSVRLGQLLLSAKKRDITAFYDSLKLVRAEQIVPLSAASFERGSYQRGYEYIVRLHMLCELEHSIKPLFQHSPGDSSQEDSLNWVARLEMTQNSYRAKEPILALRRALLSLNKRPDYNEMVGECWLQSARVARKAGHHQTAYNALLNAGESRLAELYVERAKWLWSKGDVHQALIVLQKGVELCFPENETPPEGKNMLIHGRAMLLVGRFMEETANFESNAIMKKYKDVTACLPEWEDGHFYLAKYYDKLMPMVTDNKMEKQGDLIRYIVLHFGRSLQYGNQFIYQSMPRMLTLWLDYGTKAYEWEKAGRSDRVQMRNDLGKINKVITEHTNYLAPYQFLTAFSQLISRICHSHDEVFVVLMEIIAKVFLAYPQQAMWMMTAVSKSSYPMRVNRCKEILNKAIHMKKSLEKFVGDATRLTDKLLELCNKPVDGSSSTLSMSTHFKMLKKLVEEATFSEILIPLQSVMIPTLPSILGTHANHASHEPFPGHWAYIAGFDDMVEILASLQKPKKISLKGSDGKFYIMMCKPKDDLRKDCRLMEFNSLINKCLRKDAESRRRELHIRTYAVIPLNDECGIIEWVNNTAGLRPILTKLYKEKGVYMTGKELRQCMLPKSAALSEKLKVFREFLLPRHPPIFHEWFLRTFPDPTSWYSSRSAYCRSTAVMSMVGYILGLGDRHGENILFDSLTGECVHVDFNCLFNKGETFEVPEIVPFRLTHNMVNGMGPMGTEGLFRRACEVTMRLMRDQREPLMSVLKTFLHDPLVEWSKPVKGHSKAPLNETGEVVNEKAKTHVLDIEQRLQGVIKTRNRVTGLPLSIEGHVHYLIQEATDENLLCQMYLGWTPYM
Chain of ATR/ATRIP complex (Q8WXE1 whole entry partner): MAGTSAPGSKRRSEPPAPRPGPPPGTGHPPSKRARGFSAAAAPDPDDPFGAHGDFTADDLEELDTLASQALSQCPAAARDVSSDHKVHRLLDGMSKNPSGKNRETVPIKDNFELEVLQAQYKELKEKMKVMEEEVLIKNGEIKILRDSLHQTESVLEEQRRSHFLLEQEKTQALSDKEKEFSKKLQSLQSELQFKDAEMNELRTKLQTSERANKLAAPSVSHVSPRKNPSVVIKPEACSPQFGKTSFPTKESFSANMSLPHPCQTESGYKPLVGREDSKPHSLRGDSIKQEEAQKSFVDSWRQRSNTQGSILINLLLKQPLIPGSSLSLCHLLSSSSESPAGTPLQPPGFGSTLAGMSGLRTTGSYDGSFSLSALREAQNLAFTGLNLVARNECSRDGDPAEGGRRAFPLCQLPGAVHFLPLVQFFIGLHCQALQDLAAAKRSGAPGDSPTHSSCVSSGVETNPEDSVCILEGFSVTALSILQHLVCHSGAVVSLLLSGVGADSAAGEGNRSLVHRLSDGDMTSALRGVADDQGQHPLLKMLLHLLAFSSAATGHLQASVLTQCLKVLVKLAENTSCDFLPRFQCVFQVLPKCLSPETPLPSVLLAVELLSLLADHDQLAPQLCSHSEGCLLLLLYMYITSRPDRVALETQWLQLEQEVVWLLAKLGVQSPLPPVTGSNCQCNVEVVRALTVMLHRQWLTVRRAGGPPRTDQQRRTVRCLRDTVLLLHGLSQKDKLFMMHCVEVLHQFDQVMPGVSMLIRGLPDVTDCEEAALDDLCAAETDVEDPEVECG
Protocol: Human full-length FLAG-TEV-ATR and His6-ATRIP were co-expressed in HEK293 cells. The cell pellet (20 g) was harvested and lysed in 100 mL of lysis buffer (20 mM Tris-HCl pH 7.5 at room temperature, 137 mM NaCl, 10% glycerol, 1 mM DTT, 1% (v/v) Tween-20, 0.1% (v/v) NP-40, complete protease inhibitor cocktail tablets, phosphatase inhibitor cocktail tablets, 2 mM MgCl2, 0.2 mM EDTA, and 1 mM ATP). After sonication and centrifugation, the supernatant was incubated at 4° C. for 3 hours with 1 mL of anti-FLAG resin (Sigma catalog # A2220) that had been pre-equilibrated in buffer A (20 mM Tris-HCl pH 7.5 at room temperature, 137 mM NaCl, 10% glycerol, 1 mM DTT, 2 mM MgCl2, and 0.2 mM EDTA). The sample was loaded into a column, and then washed with buffer A three times. Protein was subsequently eluted with 2 ml of buffer B (buffer A+200 μg/ml 3×FLAG peptide).
The ability of new chemical matter to inhibit the ATR catalytic activity in this ATR/ATRIP complex was assessed a Caliper-based assay. A 2× enzyme solution (i.e., 4 nM enzyme) was prepared using 1× Kinase Reaction Buffer (25 mM HEPES pH 8, 0.0055% Brij-35, 10 mM MnCl2, and 1 mM DTT). A 2× peptide solution was then prepared consisting of 10 uM FAM-labeled RAD17 peptide (GL Biochem, catalog #524315) in 1× Kinase Reaction Buffer supplemented with 2 μM ATP. 10 μL of the 2× enzyme solution was transferred to an assay plate containing 60 nL of test compound (from a 3× serial dilution) in 100% DMSO. Following a 30 minute incubation at 28° C., 10 μL of the 2× peptide solution was then transferred to the same assay plate. The reaction was allowed to incubate at 28° C. for 6 hours. After adding 30 μL of stop buffer (100 mM HEPES pH 7.5, 0.015% Brij-35, 0.2% Coating-3 Reagent (PerkinElmer, catalog # PN760050), and 50 mM EDTA), data were collected on a Caliper instrument. […] IC50 values were calculated using the following equation in XLFit: Y=Bottom+(Top-Bottom)/1+(IC50/X)^HillSlope).

[1] = system: ATR-driven phosphorylation of Chk1 kinase at Serine 345; experiment: pCHK1 cellular assay (CHK1 p-Ser345 AlphaScreen SureFire) in HT-29 cells; assay type: cell-based; conditions: 4-nitroquinoline N-oxide 12 uM, read-out: pCHK1 Cell IC50
Protocol: Inhibitors of ATR kinase are effective at inhibiting the ATR-driven phosphorylation of the downstream target Chk1 kinase at Serine 345, following the addition of 4-nitroquinoline N-oxide, a chemical used to induce DNA damage. Cellular IC50 for the inhibitors of ATR described herein were measured in HT-29 colorectal adenocarcinoma cells. HT-29 cells were routinely maintained in McCoy's 5A media (ATCC Catalog #30-2007) supplemented with 10% fetal bovine serum (Sigma Catalog # F2442) and 1× Penicillin-Streptomycin (Gibco Catalog #15140-122) using a humidified incubator (37° C., 5% CO2, and ambient O2).
In preparation for the CHK1 (p-Ser345) ALPHASCREEN® SUREFIRE® assay, cells were harvested and resuspended in McCoy's 5A media supplemented with 10% fetal bovine serum and 1× Penicillin-Streptomycin. Cells were seeded onto a 384-well black CELLSTAR® Tissue Culture Plate (VWR Catalog #89085-314) at a density of 13,000 cells/well in a volume of 40 uL. The microplate was incubated overnight (approximately 20 hours) at 37° C. with 5% CO2 and ambient O2. Stock solutions of the test compounds were prepared in 100% DMSO (Sigma, Catalog # D2650) and serially diluted 1:3 using 100% DMSO. Compounds were additionally diluted 1:33 in culture medium, and 10 ul/well were transferred to the tissue culture plate. Following the compound addition the microplate was incubated at 37° C. for 90 minutes. 10 uL of 4-nitroquinoline N-oxide (Sigma Aldrich Catalog # N8141-1G) diluted in media (final concentration 12 uM) were added to the tissue culture plate followed by a 120 minute incubation at 37° C. The cells were then washed with PBS and lysed using 10 uL/well SUREFIRE® Kit lysis buffer diluted to 1× in water (PerkinElmer Catalog # TGRCHK1S50K), with mixing on an orbital shaker at 500 rpm for 20 min at RT. Lysates were frozen at −20° C. overnight.
4 uL/well of lysate was then transferred from the tissue culture plate to a 384-well, white, low volume, PROXIPLATE™ (PerkinElmer Catalog #600828). 5 uL/well of the acceptor bead solution, prepared by diluting SUREFIRE® Kit activation buffer (PerkinElmer Catalog # TGRCHK1S50K) and ALPHASCREEN® Protein A acceptor beads (PerkinElmer Catalog #6760617R) in SUREFIRE® Kit reaction buffer (PerkinElmer Catalog # TGRCHK1S50K), were added to the lysates under subdued light and incubated at room temperature for 120 min. 2 uL/well of the donor bead solution, prepared by diluting ALPHASCREEN® Streptavidin donor beads (PerkinElmer Catalog #6760617R) in SUREFIRE® Kit dilution buffer (PerkinElmer Catalog # TGRCHK1S50K), were added under subdued light and incubated at room temperature for an addition 120 minutes. The pCHK1 ALPHASCREEN® signal was measured using an ENVISION® plate reader (PerkinElmer). IC50 values were calculated using a four-parameter logistic curve fit using Genedata Screener software. Percent of control for each compound concentration was calculated by the following formula: 100*(Compound-Min)/(Max-Min) where “Max” is the high control, DMSO, and “Min” is the low control, 5 uM ATR inhibitor.

[2] = Homo sapiens, HT-29, HT-29 colorectal adenocarcinoma cells

| Compound | pIC50 (ATR/ATRIP complex) | pIC50 [1, 2] | pIC50 ([1]; HT-29 colorectal adenocarcinoma cells) |
| --- | --- | --- | --- |
| C[C@@H]1Cc2ncnc(C3CCCN(S(C)(=O)=O)C3)c2CN1c1cc(Cl)nc2[nH]ccc12 (single isomer, unassigned) [Example 51a] | 6.25 | – | – |
| C[C@@H]1Cc2ncnc([C@H]3CCN(S(C)(=O)=O)C3)c2CN1c1ccnc2[nH]ccc12 [Example 57b, (R)-7-methyl-4-((S)-1-(methylsulfonyl)pyrrolidin-3-yl)-6-(1H-pyrrolo[2,3-b]pyridin-4-yl)-5,6,7,8-tetrahydropyrido[4,3-d]pyrimidine] | – | 6.40 | – |
| C[C@@H]1Cc2ncnc([C@H]3CCN(S(C)(=O)=O)C(C)(C)C3)c2CN1c1ccnc2[nH]ccc12 (single isomer, unassigned) [Example 48b] | – | 7.10 | – |
| C[C@@H]1Cc2ncnc(C3CCCN(S(C)(=O)=O)C3)c2CN1c1cc(Cl)nc2[nH]ccc12 (single isomer, unassigned) [Example 51b] | 5.66 | – | – |
| C[C@@H]1Cc2ncnc(N3CCC(S(C)(=O)=O)CC3)c2CN1c1ccnc2[nH]ccc12 [Example 88, (R)-7-methyl-4-(4-(methylsulfonyl)piperidin-1-yl)-6-(1H-pyrrolo[2,3-b]pyridin-4-yl)-5,6,7,8-tetrahydropyrido[4,3-d]pyrimidine] | – | 7.07 | – |
| C[C@@H]1Cc2ncnc(N3C[C@H]4CC[C@@H](C3)[C@H]4NS(C)(=O)=O)c2CN1c1ccnc2[nH]ccc12 [Example 74, N-((1R,5S,8R)-3-((R)-7-methyl-6-(1H-pyrrolo[2,3-b]pyridin-4-yl)-5,6,7,8-tetrahydropyrido[4,3-d]pyrimidin-4-yl)-3-azabicyclo[3.2.1]octan-8-yl)methanesulfonamide] | 6.55 | 7.51 | – |
| C[C@@H]1Cc2ncnc(N3CCC(S(C)(=O)=O)CC3)c2CN1c1cc(Cl)nc2[nH]ccc12 [Example 9, (R)-6-(6-Chloro-1H-pyrrolo[2,3-b]pyridin-4-yl)-7-methyl-4-(4-(methylsulfonyl)-piperidin-1-yl)-5,6,7,8-tetrahydropyrido[4,3-d]pyrimidine bis(trifluoroacetate)] | – | – | 7.60 |
